Laboratory results taken from patent US12435087B2, “Modulators of DCN-1 and methods of use thereof” (Cellarity, Inc., priority 2023, dated 2025).
Like-named read-outs stand apart in the source and are kept apart here.

Biological target: DCN1 (DCUND1) protein PONY domain (Homo sapiens (Human), UniProt Q96GG9)
Test: TR-FRET assay (binding to DCN-1, displacement of FAM-labeled probe)
How it was run: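 Compounds read at 1, 5 and 24 h, 0.1% final DMSO, by TR-FRET between terbium-streptavidin on biotinylated DCN1 PONY domain (E. coli) and a FAM-tagged non-covalent inhibitor probe. Two setups used, 5 nM protein with 20 nM labelled probe, or 0.31 nM protein with 100 nM labelled plus 800 nM unlabelled probe; buffer had TritonX and 200 mM NaCl. % activity relative to high (with probe) and low (without probe) controls.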

[1] = 24 hr after treatment with compound, read-out: TR FRET IC50 24 hr
[2] = read-out: TR FRET IC50 1 hr, 1 hr after treatment with compound
[3] = TR FRET IC50 1 hr (nM), 1 hr after treatment with compound

Sequence of DCN1 (DCUND1) protein PONY domain (Q96GG9 60-248): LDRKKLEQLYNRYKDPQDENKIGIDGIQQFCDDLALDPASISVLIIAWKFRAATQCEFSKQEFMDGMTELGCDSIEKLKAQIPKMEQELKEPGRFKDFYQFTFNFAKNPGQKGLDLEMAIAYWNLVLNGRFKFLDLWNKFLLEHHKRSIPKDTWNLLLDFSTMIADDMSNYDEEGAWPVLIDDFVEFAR

SMILES | IC50 [1] | IC50 [2] | IC50 [3]
C=C(CN(C)CC1COC1)C(=O)NCc1cccc([C@@H]2c3cnn(-c4ccccc4)c3N(CC)C(=O)[C@H]2NC(=O)c2cccc(C(F)(F)F)c2)c1 [Compound I-61] | ≤ 200 nM | ≤ 200 nM | 
C=C(C(=O)NCc1cccc([C@@H]2c3cnn(-c4ccccc4)c3N(CC)C(=O)[C@H]2NC(=O)c2ccn(C3CC3)n2)c1)C(C)N1CCC12COC2 (stereo partly shown) [Compound I-325] |  |  | 200 to 1000 nM
CCN1C(=O)[C@H](NC(=O)c2cccc(C(F)(F)F)c2)[C@@H](c2cccc(NC(=O)C34CC3C4)c2)c2c(C)nn(-c3ccccc3)c21 (mixture of isomers) [Compound I-80] | 1000 to 3000 nM |  | 1000 to 3000 nM
C=C(CN1CCN(C2COC2)CC1)C(=O)NCc1cccc([C@@H]2c3c(C)nn(-c4ccccc4)c3N(CC)C(=O)[C@H]2NC(=O)c2cccc(C(F)(F)F)c2)c1 [Compound I-353] | ≤ 200 nM | ≤ 200 nM | 
CCN1C(=O)[C@@H](NC(=O)c2cccc(C(F)(F)F)c2)[C@H](c2cccc(NC(=O)/C(C)=C/C(=O)OC)c2)c2c(C)nn(-c3ccccc3)c21 (racemic) [Compound I-145] | 200 to 1000 nM |  | 1000 to 3000 nM
CCN1C(=O)[C@@H](NC(=O)c2nccc(C(F)(F)F)n2)[C@H](c2ccccc2/C=C\C#N)c2cnn(-c3ccccc3)c21 (racemic) [Compound I-260, rac-N-((4R,5S)-4-(2-((Z)-2-cyanovinyl)phenyl)-7-ethyl-6-oxo-1-phenyl-4,5,6,7-tetrahydro-1H-pyrazolo[3,4-b]pyridin-5-yl)-4-(trifluoromethyl)pyrimidine-2-carboxamide] | 1000 to 3000 nM |  | 1000 to 3000 nM
CCN1C(=O)[C@@H](NC(=O)c2cccc(C(F)(F)F)c2)[C@H](c2ccccc2CN(C)C#N)c2cnn(-c3ccccc3)c21 (racemic) [Compound I-49] | 1000 to 3000 nM |  | 1000 to 3000 nM
CCN1C(=O)[C@H](NC(=O)c2cccc(C(F)(F)F)c2)[C@@H](c2ccccc2NC(=O)C23CC2C3)c2cnn(-c3ccccc3)c21 (mixture of isomers) [Compound I-45, {N}-[2-[˜{rac}-(4˜{S},5˜{R})-7-ethyl-6-oxo-1-phenyl-5-[[3-(trifluoromethyl)benzoyl]amino]-4,5-dihydropyrazolo[3,4-b]pyridin-4-yl]phenyl]bicyclo[1.1.0]butane-1-carboxamide] | 1000 to 3000 nM |  | 1000 to 3000 nM
C/C=C(/CN1CCOCC1)C(=O)NCc1cccc([C@@H]2c3cnn(-c4ccccc4)c3N(CC)C(=O)[C@H]2NC(=O)c2ccn(C3CC3)n2)c1 [Compound I-381] | 1000 to 3000 nM |  | 1000 to 3000 nM
C/C=C(\CN1CCOCC1)C(=O)NCc1cccc([C@H]2c3cnn(-c4ccccc4)c3N(CC)C(=O)[C@@H]2NC(=O)c2cccc(C(F)(F)F)c2)c1 [Compound I-115] | 1000 to 3000 nM |  | 1000 to 3000 nM
C=C(CN1CC2CC1C2)C(=O)NCc1cccc([C@@H]2c3cnn(-c4ccccc4)c3N(CC)C(=O)[C@H]2NC(=O)c2cccc(C(F)(F)F)c2)c1 [Compound I-13] | ≤ 200 nM | ≤ 200 nM | 
C/C=C(\CN(C)C1COC1)C(=O)NCc1cccc([C@@H]2c3cnn(-c4ccccc4)c3N(CC)C(=O)[C@H]2NC(=O)c2nccc(C(F)(F)F)n2)c1 [Compound I-322] | ≤ 200 nM |  | 1000 to 3000 nM
C=C(CN1CCOCC1)C(=O)NCc1cccc([C@H]2c3cnn(-c4ccccc4)c3N(CC)C(=O)[C@@H]2NC(=O)c2nccc(C(F)(F)F)n2)c1 [Compound I-43] | 1000 to 3000 nM |  | 1000 to 3000 nM
CCN1C(=O)[C@@H](NC(=O)c2cccc(C(F)(F)F)c2)[C@@H](c2cncc(NC(=O)/C=C/CN(C)C)c2)c2cnn(-c3ccccc3)c21 [Compound I-329] | 1000 to 3000 nM |  | 1000 to 3000 nM
CCN1C(=O)[C@@H](NC(=O)c2cccc(C(F)(F)F)c2)[C@H](c2ccccc2CNC(=O)C(F)Cl)c2cnn(-c3ccccc3)c21 (mixture of isomers) [Compound I-105] | 1000 to 3000 nM |  | 1000 to 3000 nM
CCN1C(=O)[C@@H](NC(=O)c2cccc(C(F)(F)F)c2)[C@H](c2cccc(NC(=O)/C=C(\C)C(=O)OC)c2)c2c(C)nn(-c3ccccc3)c21 (racemic) [Compound I-157] | 200 to 1000 nM |  | 1000 to 3000 nM
C=C(C(=O)NCc1cccc([C@@H]2c3cnn(-c4ccccc4)c3N(CC)C(=O)[C@H]2NC(=O)c2cccc(C(F)F)c2)c1)C(C)N(C)C1COC1 (stereo partly shown) [Compound I-277] | ≤ 200 nM | ≤ 200 nM | 
CCN1C(=O)[C@@H](NC(=O)c2nccc(C(F)(F)F)n2)[C@H](c2cccc(C(=O)N3C[C@@H](F)C[C@H]3C#N)c2)c2cnn(-c3ccccc3)c21 [Compound I-330] | 1000 to 3000 nM |  | 1000 to 3000 nM
Cc1nn(-c2ccccc2)c2c1[C@H](c1cccc(NC(=O)C3=CCC3)c1)[C@@H](NC(=O)c1cccc(C(F)(F)F)c1)C(=O)N2CCO (racemic) [Compound I-92, rac-N-((4R,5S)-4-(3-(cyclobut-1-ene-1-carboxamido)phenyl)-7-(2-hydroxyethyl)-3-methyl-6-oxo-1-phenyl-4,5,6,7-tetrahydro-1H-pyrazolo[3,4-b]pyridin-5-yl)-3-(trifluoromethyl)benzamide] | 1000 to 3000 nM |  | 1000 to 3000 nM

SMILES | IC50 [1] | IC50 [2] | IC50 [3]
CCN1C(=O)[C@@H](NC(=O)c2cccc(C(F)(F)F)c2)[C@H](c2cc(F)cc(NC(=O)/C=C/CN(C)C)c2)c2cnn(-c3ccccc3)c21 [Compound I-151] | ≤ 200 nM |  | 1000 to 3000 nM
C=C(CO)C(=O)NCc1cccc([C@H]2c3cnn(-c4ccccc4)c3N(CC)C(=O)[C@@H]2NC(=O)c2cccc(C(F)(F)F)c2)c1 [Compound I-87] | 1000 to 3000 nM |  | 1000 to 3000 nM
C=C(CN1CC2(COC2)C1)C(=O)NCc1cccc([C@@H]2c3c(C)nn(-c4ccccc4)c3N(CC)C(=O)[C@H]2NC(=O)c2cccc(C(F)(F)F)c2)c1 [Compound I-283] | ≤ 200 nM | ≤ 200 nM | 
C=C(CN1CC(F)(F)C1)C(=O)NCc1cccc([C@@H]2c3cnn(-c4ccccc4)c3N(CC)C(=O)[C@H]2NC(=O)c2nccc(C(F)(F)F)n2)c1 [Compound I-261] | ≤ 200 nM |  | 200 to 1000 nM
C/C=C(/C)S(=O)(=O)Nc1cccc([C@H]2c3c(C)nn(-c4ccccc4)c3N(CC)C(=O)[C@@H]2NC(=O)c2cccc(C(F)(F)F)c2)c1 (racemic) [Compound I-127] | 1000 to 3000 nM |  | 1000 to 3000 nM
CCN1C(=O)[C@@H](NC(=O)c2cccc(C(F)(F)F)c2)[C@H](c2cncc(NC(=O)/C=C/CN(C)C)c2)c2cnn(-c3ccccc3)c21 [Compound I-320] | 200 to 1000 nM |  | 1000 to 3000 nM
C=C(CN1CC2CC(C1)O2)C(=O)NCc1cccc([C@@H]2c3cnn(-c4ccccc4)c3N(CC)C(=O)[C@H]2NC(=O)c2nccc(C(F)(F)F)n2)c1 [Compound I-346] | ≤ 200 nM | ≤ 200 nM | 
CCN1C(=O)[C@@H](NC(=O)c2cccc(C(F)(F)F)c2)[C@H](c2cccc(CNC(=O)/C=C(\C)C(=O)OC)c2)c2cnn(-c3ccccc3)c21 [Compound I-73] | 1000 to 3000 nM |  | 1000 to 3000 nM
C=C(CN1CCOCC1)C(=O)NCc1cccc([C@H]2c3cnn(-c4ccccc4)c3N(CC)C(=O)[C@@H]2NC(=O)c2cccc(C(F)(F)F)c2)c1 [Compound I-93] | 1000 to 3000 nM |  | 1000 to 3000 nM
CCN1C(=O)[C@@H](NC(=O)c2cccc(C(F)(F)F)c2)[C@H](c2cccc(CNC(=O)C3=C(C(=O)OC)CCC3)c2)c2cnn(-c3ccccc3)c21 [Compound I-108] | 1000 to 3000 nM |  | 1000 to 3000 nM
C/C=C(\CN1CC2(COC2)C1)C(=O)N(C)Cc1cccc([C@@H]2c3cnn(-c4ccccc4)c3N(CC)C(=O)[C@H]2NC(=O)c2nccc(C(F)(F)F)n2)c1 [Compound I-235] | 1000 to 3000 nM |  | 1000 to 3000 nM
C/C=C(\CN1CC2CC(C1)O2)C(=O)Nc1cccc([C@@H]2c3cnn(-c4ccccc4)c3N(CC)C(=O)[C@H]2NC(=O)c2nccc(C(F)(F)F)n2)c1 [Compound I-337, N-((4R,5S)-4-(3-((E)-2-((6-oxa-3-azabicyclo[3.1.1]heptan-3-yl)methyl)but-2-enamido)phenyl)-7-ethyl-6-oxo-1-phenyl-4,5,6,7-tetrahydro-1H-pyrazolo[3,4-b]pyridin-5-yl)-4-(trifluoromethyl)pyrimidine-2-carboxamide] | ≤ 200 nM |  | 200 to 1000 nM
C=C(CN1CCN(C2COC2)CC1)C(=O)NCc1cccc([C@@H]2c3cnn(-c4ccccc4)c3N(CC)C(=O)[C@H]2NC(=O)c2ccn(C(F)(F)F)n2)c1 [Compound I-356] | ≤ 200 nM | ≤ 200 nM | 
CCN1C(=O)[C@@H](NC(=O)c2nccc(C(F)(F)F)n2)[C@H](c2cccc(C(=O)N(C)CC#N)c2)c2cnn(-c3ccccc3)c21 (racemic) [Compound I-370] | 1000 to 3000 nM |  | 1000 to 3000 nM
C=C(CN1CCCC1)C(=O)NCc1cccc([C@@H]2c3cnn(-c4ccccc4)c3N(CC)C(=O)[C@H]2NC(=O)c2cccc(C(F)(F)F)c2)c1 [Compound I-264] | ≤ 200 nM | ≤ 200 nM | 
CCN1C(=O)[C@@H](NC(=O)c2cccc(C(F)(F)F)c2)[C@H](c2cccc(CNC(=O)/C=C/C(=O)OC)c2)c2cnn(-c3ccccc3)c21 (racemic) [Compound I-143] | 200 to 1000 nM |  | 1000 to 3000 nM
CCN1C(=O)[C@@H](NC(=O)c2cccc(C(F)(F)F)c2)[C@@H](c2cccc(NC(=O)C3=CCN(C)C3)c2)c2c(C)nn(-c3ccccc3)c21 (racemic) [Compound I-148] | 200 to 1000 nM |  | 1000 to 3000 nM
CCN1C(=O)[C@@H](NC(=O)c2cccc(C(F)(F)F)c2)[C@H](c2cccc(NC(=O)C3=CCC3)c2)c2c(C)nn(-c3ccccc3)c21 [Compound I-70, N-((4R,5S)-4-(3-(cyclobut-1-ene-1-carboxamido)phenyl)-7-ethyl-3-methyl-6-oxo-1-phenyl-4,5,6,7-tetrahydro-1H-pyrazolo[3,4-b]pyridin-5-yl)-3-(trifluoromethyl)benzamide] | 200 to 1000 nM |  | 1000 to 3000 nM
